Test results: patent US10507210B2, “Kinase inhibitor prodrug for the treatment of cancer” (Auckland UniServices Limited, priority 2014, dated 2019)
Each block holds one compound with its values, some of them ahead of it.

Key:
[1] = tested on: EGFR autophosphorylation (Y1068)
Method: HCC827 and PC9 cell cultures are set up from log-phase passage flasks. Cells are seeded into 6-well plates at a density of 1 million cells per well and left for 48 hours under normoxic or hypoxic (1% O2) conditions. Following 3 hours of drug exposure, cells are washed in ice-cold PBS and lysed on ice for 30 minutes with radioimmunoprecipitation assay (RIPA) buffer containing sodium orthovanadate and sodium fluoride at final concentrations of 1 mM each. Cell debris is pelleted out by centrifugation (13,000 rpm for 2 minutes). Protein concentrations in each sample are determined by a bicinchoninic acid (BCA) assay. Equivalent amounts of protein (10 pig) are denatured (98° C. for 5 minutes) and loaded onto 4-20% Tris-Glycine protein gels for protein separation. Following transfer to a nitrocellulose membrane, each membrane was blocked with 5% bovine serum albumin (in Tris-buffered saline) for 1 hour. […] Excess primary antibody in each membrane was washed off with Tris-buffered saline. Secondary antibody (goat anti-rabbit) was added to each membrane at a dilution of 1:5000 for 2 hours. For protein detection, the membrane was washed in Tris-buffered saline to remove excess secondary antibody and chemiluminescent substrate added (Pierce Supersignal West Pico Chemiluminescent Substrate) for 5 minutes. The membrane was viewed using a Fujifilm LAS 4000 imager.

[2] = tested on: WT EGFR driven H125 xenografts; conditions: mouse, in vivo
[3] = tested on: HCC827 tumor; assay: HCC827 xenograft growth delay; assay type: in vivo, mice; conditions: Erlotinib 10 mg/kg Qdx21 p.o.
Method: (§1) HCC827 and PC9 human non-small cell lung cancer (NSCLC) cells were prepared in medium. […] HCC827 tumors were recruited at ˜200 mm^3 and PC9 tumors were recruited at ˜400 mm^3. When the tumors reached the desired volumes, the mice were randomly assigned to groups A-E and treated as detailed in Table 1 below:
(§2) Body weight was recorded every 3 days or prior to dosing and the length and width of subcutaneous tumors were measured with electronic calipers every 3 days and volume calculated according to the formula for a prolate ellipsoid (π/6×length×width×width). All other clinical signs were recorded.

[4] = tested on: PC9 tumor; assay: PC9 xenograft growth delay; assay type: in vivo, mice
Method: as §1, §2

[5] = tested on: PC9 xenografts; assay type: in vivo; conditions: erlotinib 10 mg/kg daily oral, period of dosing 21 days
Method: Tumors were grown to ˜400 mm^3. When tumors were 400 mm^3 mice were randomly assigned to groups A-J and treated as detailed below:
The length and width of subcutaneous tumors were measured with electronic calipers every 3 days and volume calculated according to the formula for a prolate ellipsoid (π/6×length×width×width). Body weight was recorded every 3 days or prior to dosing. All other clinical signs were recorded.

[6] = tested on: WT EGFR expressing A431 xenograft; assay: A431 xenograft antitumor activity; assay type: in vivo, mice; conditions: daily oral
[7] = tested on: FaDu cells; assay: FaDu anti-proliferative assay, five day continuous aerobic exposure; assay type: cell-based, human
Method: (§3) FaDu cells were grown in αMEM culture medium supplemented with 5% FBS, without routine use of antibiotics (P/S). Cultures were re-established from authenticated frozen stocks in liquid nitrogen at either >24 passages or >90 days in culture (whichever came first). The frozen cell stocks were confirmed to be free of mycoplasma using a PCR-ELIZA kit (Roche Diagnostics GmbH, Mannheim, Germany).
Cells were then treated with ten serial dilutions (3-fold) of each test compound. Cells were left to grow in a humidified incubator (5% CO2, 37° C.) for 5 days. Cells were then fixed with 40% trichloroacetic acid for 1 h at 4° C. Cells were then stained for Sulforhodamine B (SRB) expression. Cell density was determined by using the Biotek ELx808 Absorbance Microplate Reader.

[8] = tested on: FaDu cells; assay: FaDu anti-proliferative assay, oxic vs anoxic 24 h exposure; assay type: cell-based, human
Method: as §3
Monolayers of FaDu cells were harvested by trypsinisation and counted using a hemocytometer. For the oxic assays, cells were seeded (1500 cells/well) in 96 well plates and allowed to settle for 2 hours in a humidified incubator (37 C/5% CO2). Cells were then treated with ten serial dilutions (3-fold) of each test compound for 24 hours. For the anoxic plates, all supplies were pre-equilibrated for at least 72 hours in a H2/palladium-catalyst anaerobic chamber (Bactron, Shellab) to remove any residual oxygen. On the experiment day, cells were centrifuged (1000 rpm, 5 min) to pellet cells. The media was aspirated. The pellet was then taken into the anaerobic chamber and diluted in anoxia-equilibrated media (αMEM culture media, 5% FCS, 0.2 mmol/L 2′-deoxycytidine, 10 mmol/L glucose) to achieve the appropriate cell density. Cells were seeded in identical conditions to the oxic plates. Once seeded, cells were left to settle in a humidified incubator (37 C) within the anaerobic chamber for 2 hours. Anoxic plates were similarly treated with ten serial dilutions (3-fold) of each test compound. Anoxic plates were removed from the anaerobic chamber four hours after drug addition, and placed into a humidified incubator (37 C/5% CO2) for a further 20 hours. After a total of 24 hours of drug exposure, both the oxic and anoxic plates were washed three times in fresh media (αMEM+5% FCS+P/S). Cells were left to grow for a total of 5 days. After which, cells were fixed with 40% trichloroacetic acid for 1 hour at 4° C. Plates were then stained for Sulforhodamine B (SRB) expression. Cell density was determined by using the Biotek ELx808 Absorbance Microplate Reader. […]

[9] = in vivo; conditions: NIH-III nude, mouse, blood, po, 10 mg/kg
[10] = tested on: EGFR signalling; assay: Hypoxia preconditioning and TH-4000E sensitivity in FaDu cells; assay type: cell-based, human; conditions: 48 h at 0.1% O2 or 21% O2
Method: FaDu cells were seeded (500 k per well) in 6 well plates under both 0.1% O2 and 21% O2 for 48 hours. After 48 h of hypoxia preconditioning, cells were incubated with various concentrations of TH-4000E for 1 h.
After the designated period of anoxic exposure, cells were washed once in ice-cold PBS. […] After clarification, a BCA assay was performed to determine the protein concentration of the samples. Absorbance readings were performed at 550 nm.
Cellular lysates were resolved by gel electrophoresis and immunoblotted for various members of the EGFR signaling axis. Each loading volume included 10 μg of protein and 25% LDS sample buffer (Life Technologies #NP0007). Samples were loaded onto NuPAGE 4-12% Bis-Tris 15 well gels (Life Technologies #NP0336) and run in MES running buffer (Life Technologies #NP0002) for approximately 2 h's at 120V or until the samples had run off the gel (whichever came first). Samples were then transferred (Transfer buffer: 25 mM Tris, 192 mM glycine, 20% methanol) for 80 mins at 100V onto nitrocellulose membranes. Blots were blocked in 5% BSA or 5% phosphoblocker (CellBiolabs #AKR-104) in TBS-T for at least 1 h. Briefly, blots were incubated with primary antibodies overnight at 4° C. After three 5 min washes in TBS-T, blots were then incubated with the appropriate HRP-conjugated secondary antibody for at least 2 hours at room temperature. […]

[11] = 15 mg/kg TH-4000, tumor
Method: (§4) Mice were inoculated with PC-9 cells (˜8×10^6 cells per mouse, 42 mice in total). […] The whole tumors were snap frozen (with liquid nitrogen) and bio-pulverised. The tumors were measured every day until collection to correlate the growth kinetics of the tumor to target shutdown.
(§5) For LC-MS/MS, 4 volumes of ice cold acetonitrile (containing 0.5 μM of D6-TH-4000 & TH-4000E) were added to the tumor samples. Samples were spun at 13,000 rpm for 5 min. and 40 μL of the supernatant was taken. To the supernant, 80 μL of 0.01% FA-Water was added and the sample was mixed. 10 μL of this sample was injected for analysis. […] The mass spectrometer was operated in electrospray positive ionization mode using multiple reaction monitoring (MRM). Agilent MassHunter software (v.4.04.00) was used for data acquisition and chromatographic peak integration.

[12] = in vivo; conditions: NIH-III, mouse, plasma, ip, 15 mg/kg; for Cmax: 15 mg/kg TH-4000 ip, ± SE
Method: as §4, §5

[13] = tested on: pERK; assay: FaDu target modulation Western blot, pERK; conditions: 1 h drug, EGF 50 ng/mL 15 min
[14] = tested on: pAkt; assay: FaDu target modulation Western blot, pAkt; conditions: 1 h drug, EGF 50 ng/mL 15 min
[15] = target: pEGFR (Y1068) (Homo sapiens, UniProt P00533); assay: FaDu target modulation Western blot, pEGFR
[16] = tested on: EGFR pathway signal transduction; assay: FaDu target modulation, EGFR pathway relative dose potency

SMILES: C=CC(=O)Nc1cc(Nc2nccc(-c3cn(C)c4ccccc34)n2)c(OC)cc1N(C)CCN(C)C [AZD9291]
effect of hypoxia on inhibition of EGFR phosphorylation [1]: resistance to AZD9291

Day of average weight loss nadir [2]: [day 9]
SMILES: CN(C)C/C=C/C(=O)Nc1cc2c(Nc3ccc(F)c(Cl)c3)ncnc2cc1O[C@H]1CCOC1 [Afatinib]

SMILES: C#Cc1cccc(Nc2ncnc3cc(OCCOC)c(OCCOC)cc23)c1 [Erlotinib]
Median time to RTV4 [3]: 114 days
Median Survival gain ([4]; 10 mg/kg Erlotinib, reference Control): 9 days
Median time to RTV4 ([4]; Erlotinib 10 mg/kg Qdx21 p.o.): 39 days
tumor response [5]: stable disease
tumor outcome [6]: unable to prevent tumor progression
IC50 difference, erlotinib superior to cetuximab [7]: 2 fold
effect of anoxia on sensitivity [8]: unaffected by anoxia
IC50 lower than cetuximab ([8]; after anoxic exposure): 13 fold
AUC(0-inf) [9]: 20000 ng·h/mL

SMILES: CN(C)C/C=C/C(=O)Nc1cc2c(Nc3ccc(Cl)c(Br)c3)ncnc2cn1 [TH-4000E]
dose potency relative to cetuximab [7]: 150 fold
lower IC50 value than erlotinib [7]: 80 fold
dose-potency relative to erlotinib (IC50) [8]: 1400 fold
sensitivity, oxia- vs hypoxia-preconditioned cells [10]: comparable
T½β of released TKI in PC9 tumors [11]: 84 h
AUC(0-inf) [12]: 106 ng·h/mL
half-life [12]: 1.28 h
Cmax ([12]; Cmax obs): 47 ± 3.6 ng/mL
Cmax ([12]; Cmax pred): 50 ng/mL
concentration completely silencing pERK expression [13]: ≥ 0.12 μM
concentration largely silencing pAkt expression [14]: above 0.12 μM
concentration completely silencing pEGFR (Y1068) expression ([15]; 1 h drug, EGF 50 ng/mL 15 min): ≥ 0.12 μM
pEGFR expression completely silenced up to ([15]; lowest concentration of 3-fold dilutions): 0.041 μM
dose potency relative to TH-4000 [16]: approximately 28 fold
dose potency relative to cetuximab [16]: at least 250 fold
